Measured values taken from US8426620B2, “Production methods of furan fatty acids” (Kyungpook National University Industry-Academic Cooperation …, priority 2011, dated 2013).
“Also recorded” adds a separate entry of the source.

Experiment: DPPH radical scavenging (antioxidant) assay
Details: for radical scavenging activity (in words): DPPH assay, up to 100 μg/mL, FIG. 8
Experimental: Antioxidant activity was analyzed using 2,2-Diphenyl-1-picryhydrazyl (DPPH) assay according to the reports (22). Briefly, 50 μl of sample solution in DMSO was added to 200 μl of 200 μM DPPH radical solution in a 96-well plate. L-ascorbic acid and α-Tocopherol were used as positive controls. After 30 min of incubation at 37° C., the absorbance at 515 nm was measured. DPPH free radical scavenging activities was calculated using the equation; radical scavenging activity (%)=[1−(Asample−Ablank)/(Acontrol−Ablank)]×100. DMSO was used as a control.

| SMILES | radical scavenging activity (in words) | radical scavenging activity (highest concentration tested, 100 μg/mL, 30 min at 37° C., absorbance 515 nm) |
| --- | --- | --- |
| CCCCCCCCc1ccc(CCCCCC(=O)O)o1 [7,10-EODA, 7,10-epoxy-octadeca-7,9-dienoic acid] | radical scavenging activity increasing in a dose-dependent manner; also recorded: increased dose-dependently | 23% |
| CCCCCCCC[C@H](O)/C=C/[C@@H](O)CCCCCC(=O)O [DOD, 7,10-dihydroxy-8(E)-octadecenoic acid, reference compound] | did not show any activity | – |
